Experimental data taken from patent US8759519B2, “Mono-hydrochloric salts of an inhibitor of histone deacetylase” (Janssen Pharmaceutica NV, priority 2007, dated 2014).
Structures can show the parent of a compound that is named as a salt.

Tests used:
Format in all cases: physicochemical
[1] = Adsorption/desorption of water (dynamic vapor sorption)
Method: The ADS/DES data were obtained using a SMS dynamic vapor sorption model DVS-1 and the weight change was recorded with tespect to the atmospheric humidity at 25° C. The weight of the samples was about 17 mg of Form I and 24 mg of Form II. The samples were dried for 60 min under dry nitrogen. The equilibrium was lower or equal to 0.01%/min. for minimal 15 min and maximal 60 min. The data interval was 0.05% or 2.0 min.
Relative Humidity (%) measurement points were:
The adsorption and desorption of water at 25° C. at different conditions of relative humidity was investigated on 17 mg Form I.
The weight change as a function of relative humidity was registered.
The adsorption and desorption of water at 25° C. at different conditions of relative humidity was investigated on about 24 mg Form II

[2] = Crystallographic stability after storage in open conditions (TGA, DSC, XRPD, IR); parameters: key to XRD / IR: ~Ref: identical with reference; Cryst.: crystalline; conditions: for IR / XRD: Table G
Method: The stability of the crystal structure of Form I was studied after storage of the compound in open conditions for a period of six weeks at room temperature (RT) under <5%, 56% and 75% relative humidity (RH), 50° C. and 40° C./75% RH.
The samples are analyzed with thermogravimetry (TGA), differential scanning calorimetry (DSC), X-ray powder diffraction (XRPD) and infrared spectroscopy (IR).
The stability of the crystal structure of Form II was studied after storage of the compound in open conditions for a period of six weeks at room temperature (RT) under <5%, 56% and 75% relative humidity (RH), 50° C. and 40° C./75% RH.
The samples were analyzed with thermogravimetry (TGA), differential scanning calorimetry (DSC), X-ray powder diffraction (XRPD) and infrared spectroscopy (IR).

[3] = Chemical stability after storage in open conditions (HPLC, visual inspection); conditions: for HPLC Sum of impurities / Appearance: hydrochloride
Method: Form I was stored in different open conditions for periods of 1, 4 and 8 weeks.
These conditions are 40° C./75% RH, 50° C., RT/<5% RH, RT/56% RH, RT/75% RH and 0.3 da ICH light.
The compounds were analyzed after storage by HPLC and by visual inspection.
Form II was stored in different open conditions for periods of 1, 4 and 8 weeks. These conditions were 40° C./75% RH, 50° C., RT/<5% RH, RT/56% RH, RT/75% RH and 0.3 da ICH light.

[4] = 0 days (reference), hydrochloride
[5] = extra endothermic signal, six weeks open, 40° C./75% RH
[6] = extra endothermic signal, six weeks open, 50° C.
[7] = extra endothermic signal, six weeks open, RT/56% RH
[8] = extra endothermic signal, six weeks open, RT/75% RH
[9] = extra endothermic signal, six weeks open, RT/<5% RH
[10] = six weeks open, 40° C./75% RH, hydrochloride
[11] = six weeks open, 50° C., hydrochloride
[12] = six weeks open, RT/<5% RH, hydrochloride

Cn1cc(CNCC2CCN(c3ncc(C(=O)NO)cn3)CC2)c2ccccc21 [Form II, N-hydroxy-2-[4-[[[(1-methyl-1H-indol-3-yl)methyl]amino]methyl]-1-piperidinyl]-5-pyrimidinecarboxamide hydrochloride]
drying during the desorption cycle ([1]; 25° C.): dries completely | hygroscopic behavior ([1]; 25° C., adsorption/desorption test, hydrochloride): hygroscopic | water adsorbed at high relative humidity ([1]; 25° C., high relative humidity, hydrochloride): up to 9.6% | crystallinity during the adsorption/desorption test ([1]; 25° C., hydrochloride): remains crystalline | weight loss during the initial drying step ([1]; dried under dry nitrogen): 1.67% | DSC Max (° C.) ([2]; 0 days (reference)): ±198 °C | TGA <170° C. ([2]; 0 days (reference)): 0.4% | App (appearance) [2, 4]: white | TGA <100° C. [2, 4]: 3.3% | IR ([2]; six weeks open, 40° C./75% RH): ≠Ref | XRD ([2]; six weeks open, 40° C./75% RH): ≠Ref | IR ([2]; six weeks open, 50° C.): ~Ref | XRD ([2]; six weeks open, 50° C.): ~Ref | IR ([2]; six weeks open, RT/56% RH): ≠Ref | XRD ([2]; six weeks open, RT/56% RH): ≠Ref | IR ([2]; six weeks open, RT/75% RH): ≠Ref | XRD ([2]; six weeks open, RT/75% RH): ≠Ref | IR ([2]; six weeks open, RT/<5% RH): ~Ref | XRD ([2]; six weeks open, RT/<5% RH): ~Ref | DSC Extra (° C.) ([2]; extra endothermic signal (solvent evaporation), 0 days (reference)): 71.5 °C | DSC Extra, heat of the signal ([2]; extra endothermic signal, 0 days (reference)): (78 J/g) | DSC Extra (° C.) [2, 5]: 83.9 °C | DSC Extra, heat of the signal [2, 5]: (151 J/g) | DSC Extra (° C.) [2, 6]: 74.6 °C | DSC Extra, heat of the signal [2, 6]: (66 J/g) | DSC Extra (° C.) [2, 7]: 87.1 °C | DSC Extra, heat of the signal [2, 7]: (144 J/g) | DSC Extra (° C.) [2, 8]: 85.2 °C | DSC Extra, heat of the signal [2, 8]: (153 J/g) | DSC Extra (° C.) [2, 9]: 75.1 °C | DSC Extra, heat of the signal [2, 9]: (68 J/g) | crystallographic stability (conclusion) ([2]; six weeks open storage under the different conditions, hydrochloride): crystallographically not stable | DSC Max (° C.) ([2]; six weeks open, 40° C./75% RH): ±198 °C | TGA <170° C. ([2]; six weeks open, 40° C./75% RH): 0.2% | App (appearance) [2, 10]: pink | TGA <100° C. [2, 10]: 6% | DSC Max (° C.) ([2]; six weeks open, 50° C.): ±198 °C | TGA <170° C. ([2]; six weeks open, 50° C.): 0.2% | App (appearance) [2, 11]: white | TGA <100° C. [2, 11]: 2.1% | DSC Max (° C.) ([2]; six weeks open, RT/56% RH): ±198 °C | TGA <170° C. ([2]; six weeks open, RT/56% RH): 0.3% | TGA <100° C. ([2]; six weeks open, RT/56% RH, hydrochloride): 5.2% | DSC Max (° C.) ([2]; six weeks open, RT/75% RH): ±198 °C | TGA <170° C. ([2]; six weeks open, RT/75% RH): 0.3% | TGA <100° C. ([2]; six weeks open, RT/75% RH, hydrochloride): 4.9% | DSC Max (° C.) ([2]; six weeks open, RT/<5% RH): ±198 °C | TGA <170° C. ([2]; six weeks open, RT/<5% RH): 0.4% | App (appearance) [2, 12]: white | TGA <100° C. [2, 12]: 1.9% | HPLC Sum of impurities ([3]; 0.3 da ICH light (1 week)): 7.42% | HPLC Sum of impurities ([3]; 40° C./75% RH, 1 week): 4.96% | Appearance ([3]; 40° C./75% RH, 4 weeks): pink | HPLC Sum of impurities ([3]; 40° C./75% RH, 4 weeks): 4.99% | Appearance ([3]; 40° C./75% RH, 8 weeks): pink | HPLC Sum of impurities ([3]; 40° C./75% RH, 8 weeks): 4.9% | Appearance ([3]; 50° C., 1 week): white | HPLC Sum of impurities ([3]; 50° C., 1 week): 4.96% | Appearance ([3]; 50° C., 4 weeks): white | HPLC Sum of impurities ([3]; 50° C., 4 weeks): 5% | HPLC Sum of impurities ([3]; 50° C., 8 weeks): 4.9% | HPLC Sum of impurities ([3]; RT/56% RH, 4 weeks): 5.05% | HPLC Sum of impurities ([3]; RT/56% RH, 8 weeks): 4.94% | HPLC Sum of impurities ([3]; RT/75% RH, 4 weeks): 5.03% | HPLC Sum of impurities ([3]; RT/75% RH, 8 weeks): 4.97% | Appearance ([3]; RT/<5% RH, 4 weeks): white | HPLC Sum of impurities ([3]; RT/<5% RH, 4 weeks): 5.1% | Appearance ([3]; RT/<5% RH, 8 weeks): white | HPLC Sum of impurities ([3]; RT/<5% RH, 8 weeks): 4.98% | Appearance ([3]; Reference (1 week)): white | HPLC Sum of impurities ([3]; Reference (1 week)): 5.04% | discoloration ([3]; after storage in 0.3 da ICH light): white to or orange-brown | discoloration ([3]; after storage in humid conditions RT/56% RH, RT/75% RH and 40° C./75% RH and elevated temperature 50° C.): white to pink | sensitivity towards light (sum of impurities) ([3]; storage in 0.3 da ICH light conditions): showed a sensitivity towards light
